Reference: article PMC3283556, “The Activities of Current Antimalarial Drugs on the Life Cycle Stages of Plasmodium: A Comparative Study with Human and Rodent Parasites” (PLoS Medicine, 2012)
“Also recorded” adds a separate entry of the source. Like-named read-outs stand apart in the source and are kept apart here.

How the values were obtained:
[1] = tested on: P. yoelii liver stage parasites (liver schizonts); assay: P. yoelii liver stage assay in HepG2 cells (EEF immunofluorescence); type: cell-based, Plasmodium yoelii; conditions: for IC50: Plasmodium yoelii
[2] = tested on: P. berghei ookinete formation; assay: P. berghei ookinete development assay; type: cell-based, Plasmodium berghei; conditions: 10 µM
Experimental: Compounds and P. berghei gametocyte-infected blood were dispensed in a 96-well plate containing ookinete medium. After 24 h at 19°C, Giemsa-stained ookinetes were counted under the microscope (×40) as previously described,[28].
Figure 3 The transmission-blocking potential of selected antimalarials in three bioassays that cover different phases of Plasmodium vector stage development. (A) Assays examined exflagellation (P. falciparum), ookinete formation (P. berghei), or oocyst formation (P. falciparum). All antimalarials were screened at 10 µM. (B) The biological content of the in vitro P. berghei ookinete assay spans gamete formation, fertilization, zygote development, and ookinete formation. Ookinete formation was insensitive to most of the antimalarials tested. […] (D) The in vitro P. falciparum exflagellation assay exposes mature gametocytes to antimalarials for 24 h before triggering exflagellation. […] All experiments in triplicate. (E) The in vivo P. falciparum oocyst assay differs from the P. berghei oocyst assay in that mature gametocytes were exposed to the antimalarials in culture for 24 h before feeding to mosquitoes. […] NPC1161-B, lumefantrine, halofantrine, and mefloquine +RS isomer were also active. (n = 4–61 observations; average ± standard error of the mean [SEM]).

[3] = tested on: P. berghei oocyst formation; assay: Standard membrane feed assay, P. berghei oocysts in A. stephensi; type: in vivo, Plasmodium berghei; conditions: for transmission-blocking effect on P. berghei oocysts (words): 10 µM
Experimental: Membrane feeds were performed as described previously. Briefly, PbGFPcon-infected mouse blood was mixed with compounds, immediately placed into membrane feeders (39°C) and offered for 30 min to 80–100 overnight-starved A. stephensi (SDA 500 strain). After 7–9 d at 19°C/80%RH, mosquito midguts were dissected out. Midguts were fixed with paraformaldehyde and oocyst number was determined microscopically by semi-automated analysis as previously described.
Supplementary file pmed.1001169.s001.tif: Figure S1 The transmission-blocking potential of selected compounds against P. berghei in standard membrane feeding assays. All antimalarials were screened at 10 µM in triplicate in independent experiments. The biological content of this assay spans gamete formation through to occyst development all within the gut of the mosquito. […] (TIF) Click here for additional data file.

[4] = tested on: P. falciparum mature gametocytes / male gamete exflagellation; assay: P. falciparum exflagellation assay; type: cell-based, Plasmodium falciparum; conditions: for inhibition at 10 µM: Plasmodium falciparum
[5] = 10 µM, 24 h exposure of mature gametocytes

Compound	IC50 ([1]; HepG2, box linked to liver schizont, read-out: IC50 (liver schizont, Figure 5)) [nM]	IC50 ([1]; development of P. yoelii liver schizonts following infection of HepG2 cells, read-out: IC50 Parasite) [nM]	potency range against liver stages ([1]; dose response)	effect on ookinete formation [2]	transmission-blocking effect on P. berghei oocysts (words) [3]	inhibition at 10 µM ([3]; Plasmodium berghei) [%]	effect on exflagellation (words) [4, 5]	effect on exflagellation (words) ([4]; 10 µM, 24 h exposure of mature gametocytes, listed as NPC1161-B)	inhibition at 10 µM ([4]; read-out: inhibition of exflagellation, 10 µM, 24 h exposure of mature gametocytes) [%]	inhibition at 10 µM ([4]; 10 μM, box linked to gametocytes/exflagellation, read-out: Inhibition at 10 μM (gametocytes/exflagellation, Figure 5)) [%]	IC50 ([1]; HepG2, development of P. yoelii liver schizonts following infection of HepG2 cells, read-out: IC50 Parasite) [nM]	enhancement (stimulation) of exflagellation [4, 5] [%]
COc1cc(N[C@H](C)CCCN)c2nccc(C)c2c1Oc1ccc(Cl)c(Cl)c1 [NPC-1161B]	< 1000	720 ± 70	submicromolar range	all assays except the ookinete assay	most notable transmission-blocking activity; also recorded: showed potency	> 90	inhibited exflagellation totally; also recorded: inhibit exflagellation in vitro; also recorded: inhibited both exflagellation and oocyst production	showed potency	> 70	> 60	–	–
CCCCN(CCCC)CCC(O)c1cc2c(Cl)cc(Cl)cc2c2cc(C(F)(F)F)ccc12 (centres unmarked) [halofantrine]	–	–	–	–	impaired sporogony	–	only moderate or no inhibition of exflagellation	–	–	–	2320 ± 1350	45
